Measurements as given in patent US20240041042A1, “1-(PYRIDYL)-5-AZINYLPYRAZOLE DERIVATIVES, AND THEIR USE FOR CONTROL OF UNDESIRED PLANT GROWTH” (Bayer Aktiengesellschaft, priority 2020, published 2024).
Read-outs that look alike come from different tables or passages of the source.

Tests used:
Assay type in all cases: in vivo
[1] = system: Abutilon theophrasti (ABUTH); assay: Pre-emergence herbicidal action against ABUTH; conditions: Dosage column 320 g/ha (title prints 3200 g/ha); scored visually after about 3 weeks; 100% = plants have died
How it was run: (§1)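 Pre-emergence soil-surface spray of compound, formulated as wettable powder or emulsion concentrate, in aqueous suspension or emulsion with 0.5% additive (600 l/ha; rate 320 g/ha or less). Activity rated visually after roughly 3 weeks in the greenhouse as a percentage of untreated controls, 0% meaning no difference.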

[2] = system: Alopecurus myosuroides (ALOMY); assay: Pre-emergence herbicidal action against ALOMY; conditions: scored visually after about 3 weeks, 100% = plants have died
How it was run: as §1

[3] = system: Amaranthus retroflexus (AMARE); assay: Pre-emergence herbicidal action against AMARE; conditions: visual scoring after about 3 weeks vs untreated controls
How it was run: as §1

Avena fatua (AVEFA) [4] = assay: Pre-emergence herbicidal action against AVEFA; conditions: visual scoring after about 3 weeks vs untreated controls
How it was run: as §1

[5] = system: Echinochloa crus-galli (ECHCG); assay: Pre-emergence herbicidal action against ECHCG
How it was run: as §1

Lolium rigidum (LOLRI) [6] = assay: Pre-emergence herbicidal action against LOLRI
How it was run: as §1

[7] = system: Matricaria inodora (MATIN); assay: Pre-emergence herbicidal action against MATIN
How it was run: as §1

[8] = system: Pharbitis purpurea (PHBPU); assay: Pre-emergence herbicidal action against PHBPU
How it was run: as §1

[9] = system: Polygonum convolvulus (POLCO); assay: Pre-emergence herbicidal action against POLCO
How it was run: as §1

Setaria viridis (SETVI) [10] = assay: Pre-emergence herbicidal action against SETVI
How it was run: as §1

[11] = system: Verconica persica (VERPE); assay: Pre-emergence herbicidal action against VERPE; conditions: dosage 320 g/ha
How it was run: as §1

Viola tricolor (VIOTR) [12] = assay: Pre-emergence herbicidal action against VIOTR
How it was run: as §1

[13] = system: Alopecurus myosuroides (ALOMY); assay: Post-emergence herbicidal action against ALOMY; conditions: visual rating about 3 weeks after treatment vs untreated controls (100% = plants have died, 0% = like control plants)
How it was run: (§2)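 Greenhouse plants sprayed at the one-leaf stage, 2–3 weeks after sowing, with WP or EC formulations plus 0.5% additive at 600 l/ha water. Activity rated visually after about 3 weeks versus untreated controls (100% = dead, 0% = like control), at 320 g/ha or lower.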

Avena fatua (AVEFA) [14] = assay: Post-emergence herbicidal action against AVEFA; conditions: visual rating about 3 weeks after treatment
How it was run: as §2

[15] = system: Echinochloa crus-galli (ECHCG); assay: Post-emergence herbicidal action against ECHCG
How it was run: as §2

Lolium rigidum (LOLRI) [16] = assay: Post-emergence herbicidal action against LOLRI
How it was run: as §2

[17] = system: Matricaria inodora (MATIN); assay: Post-emergence herbicidal action against MATIN
How it was run: as §2

[18] = system: Pharbitis purpurea (PHBPU); assay: Post-emergence herbicidal action against PHBPU
How it was run: as §2

Setaria viridis (SETVI) [19] = assay: Post-emergence herbicidal action against SETVI
How it was run: as §2

[20] = system: Verconica persica (VERPE); assay: Post-emergence herbicidal action against VERPE
How it was run: as §2

Viola tricolor (VIOTR) [21] = assay: Post-emergence herbicidal action against VIOTR
How it was run: as §2

Oryza sativa (ORYSA) = conditions: crop plant compatibility
How it was run: (§3)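 Foliar application at the one-leaf stage: WP/EC formulation, 0.5% additive, 600 l/ha water. Greenhouse-grown in sandy loam. Endpoint is visual % injury relative to untreated controls at about 3 weeks.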

Zea mays (ZEAMX) = conditions: 20 g/ha, ZEAMX, effect in comparison to untreated controls
How it was run: as §3

[22] = 80 g/ha, effect in comparison to untreated controls

Row | SMILES | Pre-emergence action against ABUTH [1] [%] | Pre-emergence action against ALOMY ([2]; 320 g/ha) [%] | Pre-emergence action against AMARE in % ([3]; 80 g/ha) [%] | Pre-emergence action against AMARE in % ([3]; 320 g/ha) [%] | Pre-emergence action against AVEFA in % (Avena fatua (AVEFA) [4]; 320 g/ha) [%] | Pre-emergence action against ECHCG in % ([5]; dosage 80 g/ha) [%] | Pre-emergence action against ECHCG in % ([5]; dosage 320 g/ha) [%] | Pre-emergence action against LOLRI in % (Lolium rigidum (LOLRI) [6]; dosage 80 g/ha) [%] | Pre-emergence action against LOLRI in % (Lolium rigidum (LOLRI) [6]; dosage 320 g/ha) [%] | Pre-emergence action against MATIN in % ([7]; dosage 320 g/ha) [%] | Pre-emergence action against PHBPU in % ([8]; dosage 320 g/ha) [%] | Pre-emergence action against POLCO in % ([9]; dosage 80 g/ha) [%] | Pre-emergence action against POLCO in % ([9]; dosage 320 g/ha) [%] | Pre-emergence action against SETVI in % (Setaria viridis (SETVI) [10]; dosage 80 g/ha) [%] | Pre-emergence action against SETVI in % (Setaria viridis (SETVI) [10]; dosage 320 g/ha) [%] | Pre-emergence action against VERPE in % [11] [%] | Pre-emergence action against VIOTR in % (Viola tricolor (VIOTR) [12]; 320 g/ha, Viola tricolor) [%] | Pre-emergence action against VIOTR in % (Viola tricolor (VIOTR) [12]; dosage 80 g/ha) [%] | Post-emergence action against ECHCG in % ([15]; dosage 80 g/ha) [%] | Post-emergence action against VERPE in % ([20]; dosage 80 g/ha) [%] | further results
1 | C[C@@H](Oc1nn(-c2nc(F)ccc2F)c(-c2cncc(F)c2)c1Br)C(=O)O [Example I-155] | 90 | 100 | 90 | 100 | 90 | 90 | 100 | 90 | 100 | 90 | 90 | 90 | 90 | 80 | 100 | 100 | 100 | 100 | 80 | 80 | Pre-emergence action against MATIN in % ([7]; dosage 80 g/ha): 90%; Pre-emergence action against PHBPU in % ([8]; dosage 80 g/ha): 90%; Post-emergence action against ALOMY in % ([13]; 320 g/ha): 80%; Post-emergence action against AVEFA in % (Avena fatua (AVEFA) [14]; 320 g/ha): 80%; Post-emergence action against ECHCG in % ([15]; dosage 320 g/ha): 80%; Post-emergence action against LOLRI in % (Lolium rigidum (LOLRI) [16]; dosage 320 g/ha): 80%; Post-emergence action against MATIN in % ([17]; dosage 320 g/ha): 80%; Post-emergence action against PHBPU in % ([18]; dosage 80 g/ha): 80%; Post-emergence action against PHBPU in % ([18]; dosage 320 g/ha): 90%; Post-emergence action against SETVI in % (Setaria viridis (SETVI) [19]; dosage 80 g/ha): 80%; Post-emergence action against SETVI in % (Setaria viridis (SETVI) [19]; dosage 320 g/ha): 90%; Post-emergence action against VERPE in % ([20]; 320 g/ha, VERPE): 80%; Post-emergence action against VIOTR in % (Viola tricolor (VIOTR) [21]; 80 g/ha): 80%; Post-emergence action against VIOTR in % (Viola tricolor (VIOTR) [21]; 320 g/ha): 80%; Post-emergence action against ORYSA in % (Oryza sativa (ORYSA); [22]): 10%
2 | CCOC(=O)[C@@H](C)Oc1nn(-c2ncccc2F)c(-c2ccc(F)nc2)c1Br [Example I-33] | 80 | 100 | 90 | 100 | 100 | 90 | 100 | 90 | 100 | 90 | 90 | 90 | 100 | 90 | 100 | 100 | 100 | 100 | 90 | 90 | Pre-emergence action against ALOMY ([2]; 80 g/ha): 100%; Pre-emergence action against AVEFA in % (Avena fatua (AVEFA) [4]; 80 g/ha): 80%; Post-emergence action against ALOMY in % ([13]; 80 g/ha): 90%; Post-emergence action against AVEFA in % (Avena fatua (AVEFA) [14]; 80 g/ha): 90%; Post-emergence action against LOLRI in % (Lolium rigidum (LOLRI) [16]; dosage 80 g/ha): 80%; Post-emergence action against MATIN in % ([17]; dosage 80 g/ha): 80%; Post-emergence action against ORYSA in % (Oryza sativa (ORYSA); 20 g/ha, effect vs untreated controls): 0%; Post-emergence action against ORYSA in % (Oryza sativa (ORYSA); [22]): 10%; Post-emergence action against ZEAMX in % (crop plant compatibility) (Zea mays (ZEAMX)): 10%
